Source: publication PMC12516379, “Rotamer-Controlled Self-Immolative Linkers Enable Tunable Release of Neurosteroid Oxime Prodrugs” (ACS Medicinal Chemistry Letters, 2025)

Legend:
[1] = Aqueous solubility by visual inspection in acetate buffer (pH 5); conditions: sodium acetate buffer
Method: For the solubility assessment, acetate buffer (pH 5) was selected as the media of choice to ensure prodrug stability during analysis.
High aqueous solubility was determined by visual inspection of 5 mg solid material in 0.5 mL
sodium acetate buffer solution. This media was selected to ensure stability of prodrugs during
dissolution in 50 mg/mL aqueous media.

[2] = Plasma stability assay at 37 °C via LC-MS/MS, human plasma; type: in vitro ADME; conditions: for half-life at 3 µM: human, plasma;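 as to all read-outs here: prodrugs at 3 µM incubated in human plasma at 37 °C, intact prodrug quantified by LC-MS/MS over time, values are means of duplicate runs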
[3] = PBS stability assay at 37 °C via LC-MS/MS; type: physicochemical; conditions: for half-life at 3 µM / remaining at 2 h, 3 µM: phosphate-buffered saline (DPBS); for half-life at 3 µM: pH 7.03, PBS; for PBS, 37 °C %rem. at 2h (Table S23) / half-life at 3 µM / remaining at 2 h, 3 µM: 37 °C; for remaining at 2 h, 3 µM: pH 7.03, read-out: % Remaining @ 2h, PBS, 37 °C (Tables S25, S26)
[4] = Stability in PBS at room temperature via HPLC (UV); type: physicochemical; conditions: phosphate-buffered saline (DPBS)
Method: (§1) Stability studies were conducted in PBS and acetate buffer utilizing high performance liquid chromatography for potential drug storage considerations. […]
(§2) All experiments were performed in duplicate and results are presented as the average of two experimental replicates.
(§3) 1.1 Aqueous Stability in PBS and Acetate Buffer via HPLC
(§4) Material and Instrumentation
(§5) HPLC grade acetonitrile (MeCN) […] HPLC grade water (H 2O), and formic acid (FA) were purchased from Fisher Scientific.
(§6) Puradisc 4 mm PTFE (0.45 μm) syringe filters from Cytiva. Gibco ® Dulbecco’s phosphate-buffered saline (DPBS 1X, no calcium, no magnesium, pH = 7.03) and acetate buffer (pH = 5.0, 10 mM) were purchased directly from Thermo Fisher Scientific and Cytiva, respectively.
(§7) Aqueous stability experiments were performed on an Agilent 1100 HPLC equipped with an Agilent G1315B diode array detector, an Agilent G1316A heated column compartment, and a Zorbax Eclipse XDB-C18 (4.6 x 150 mm, 5 μm) column.
(§8) Procedure for Aqueous Stability Experiments
(§9) Each sample was first weighed out in two separate 2.0 mL vials using an analytical balance.
(§10) Unless otherwise specified, the test compounds were then dissolved in the aqueous media (PBS or acetate buffer) at a standard concentration of 1 mg/mL. All mixtures were subsequently sonicated for approximately 30 sec. […]
(§11) min), precipitates observed in sample solutions were filtered with a PTFE syringe filter prior to analysis. Immediately after sample preparation, injection by the HPLC autosampler was performed, which was recorded as the initial time point (t = 0 min). Solutions were then kept in the autosampler at RT and reinjected at designated intervals without additional filtration or sample modification. Remaining prodrug was defined by the area under the curve (AUC) at 254 nm. Aqueous stability was ascertained by calculating the percentage of the parent compound remaining after each time point. Linear regression of the time (x-axis) vs. ln(%remaining) (y-axis) plot afforded the rate constant k (slope = -k). Pseudo first-order half-lives were then calculated by the following equation: t1/2 = 0.693/k.

[5] = Stability in acetate buffer pH 5.0 at room temperature via HPLC (UV); type: physicochemical
Method: as §1, §2, §3, §4, §5, §6, §7, §8, §9, §10, §11

[6] = pH 5, aqueous buffer, thermodynamic from solid
[7] = 3 µM, LC-MS/MS, read-out: t1/2 in human plasma at 37 °C (Tables S10-S13, S18) (converted)
[8] = read-out: Plasma, 37 °C t½ (Table S23) (converted)
[9] = 3 µM, LC-MS/MS, read-out: t1/2 in PBS at 37 °C (Tables S14-S17) (converted)
[10] = read-out: PBS, 37 °C t½ (Table S23) (converted)
[11] = read-out: t1/2 (h) PBS, 37 °C (Tables S25, S26) (converted)
[12] = pH 7.03, DPBS pH 7.03, RT, 1 mg/mL, HPLC 254 nm, read-out: t1/2 in PBS buffer at RT (Tables S1-S4) (converted)
[13] = pH 7.03, PBS, rt, read-out: t½: PBS, rt (Table S23) (converted)
[14] = pH 5, acetate buffer pH 5.0, RT, 1 mg/mL, HPLC 254 nm, read-out: t1/2 in acetate buffer at RT (Tables S5-S8) (converted)
[15] = pH 5, acetate buffer pH 5.0, rt, read-out: t½: pH 5.0, rt (Table S23) (converted)
[16] = LC-MS/MS, read-out: Half-life (t½) Plasma 37°C (converted)
[17] = LC-MS/MS, read-out: Half-life (t½) PBS 37°C (converted)
[18] = pH 7.03, PBS, rt, HPLC (UV), read-out: Half-life (t½) PBS rt (converted)
[19] = pH 5, acetate buffer pH 5.0, rt, HPLC (UV), read-out: Half-life (t½) pH 5.0 rt (converted)

## CNCCN(CC(C)C)C(=O)O/N=C(\C)[C@H]1CC[C@H]2[C@@H]3CCC4=CC(=O)CC[C@]4(C)[C@H]3CC[C@]12C.O=C(O)C(F)(F)F [20f]
[1]; [6]
  solubility: > 10000 µg/mL
[2]
  Plasma, 37 °C %rem. at 2h (Table S23): 95%
[2]; [7]
  half-life at 3 µM: 4.78 h
[2]; [8]
  half-life at 3 µM: 4.78 h
[3]; PBS
  PBS, 37 °C %rem. at 2h (Table S23): 55%
  remaining at 2 h, 3 µM: 55%
[3]; [9]
  half-life at 3 µM: 5.07 h
[3]; [10]
  half-life at 3 µM: 5.07 h
[3]; [11]
  half-life at 3 µM: 5.07 h
[4]; [12]
  half-life at 1 mg/mL: 50.7 ± 5.11 h
[4]; [13]
  half-life at 1 mg/mL: > 24 h
[5]; [14]
  half-life at 1 mg/mL: > 168 h
[5]; [15]
  half-life at 1 mg/mL: > 168 h

## CNCCN(CCCN1CCOCC1)C(=O)O/N=C(\C)[C@H]1CC[C@H]2[C@@H]3CCC4=CC(=O)CC[C@]4(C)[C@H]3CC[C@]12C.O=C(O)C(F)(F)F [20i]
[1]; [6]
  solubility: > 10000 µg/mL
[2]
  Plasma, 37 °C %rem. at 2h (Table S23): 57%
[2]; [7]
  half-life at 3 µM: 2.09 h
[2]; [8]
  half-life at 3 µM: 2.09 h
[3]; PBS
  PBS, 37 °C %rem. at 2h (Table S23): 77%
  remaining at 2 h, 3 µM: 77%
[3]; [9]
  half-life at 3 µM: 5.45 h
[3]; [10]
  half-life at 3 µM: 5.45 h
[3]; [11]
  half-life at 3 µM: 5.45 h
[4]; [12]
  half-life at 1 mg/mL: 31.2 ± 1.48 h
[4]; [13]
  half-life at 1 mg/mL: 31.2 h
[5]; [14]
  half-life at 1 mg/mL: > 168 h
[5]; [15]
  half-life at 1 mg/mL: > 168 h

## CNCCN(CCn1ccnc1)C(=O)O/N=C(\C)[C@H]1CC[C@H]2[C@@H]3CCC4=CC(=O)CC[C@]4(C)[C@H]3CC[C@]12C [20k]
[1]; [6]
  solubility: > 10000 µg/mL
[2]
  Plasma, 37 °C %rem. at 2h (Table S23): 68%
[2]; [7]
  half-life at 3 µM: 3.16 h
[2]; [8]
  half-life at 3 µM: 3.16 h
[3]; PBS
  PBS, 37 °C %rem. at 2h (Table S23): 70%
  remaining at 2 h, 3 µM: 70%
[3]; [9]
  half-life at 3 µM: 5.99 h
[3]; [10]
  half-life at 3 µM: 5.99 h
[3]; [11]
  half-life at 3 µM: 5.99 h
[4]; [12]
  half-life at 1 mg/mL: 47 ± 2.84 h
[4]; [13]
  half-life at 1 mg/mL: 47 h
[5]; [14]
  half-life at 1 mg/mL: > 168 h
[5]; [15]
  half-life at 1 mg/mL: > 168 h

## C/C(=N\OC(=O)N(C)C[C@H]1CCCN1)[C@H]1CC[C@H]2[C@@H]3CCC4=CC(=O)CC[C@]4(C)[C@H]3CC[C@]12C.O=C(O)C(F)(F)F [20m]
[1]; [6]
  solubility: > 10000 µg/mL
[2]
  Plasma, 37 °C %rem. at 2h (Table S23): 2%
[2]; [7]
  half-life at 3 µM: 0.35 h
[2]; [8]
  half-life at 3 µM: 0.35 h
[3]; PBS
  PBS, 37 °C %rem. at 2h (Table S23): 11%
[3]; [9]
  half-life at 3 µM: 0.8 h
[3]; [10]
  half-life at 3 µM: 0.8 h
[4]; [12]
  half-life at 1 mg/mL: 6.15 ± 0.02 h
[4]; [13]
  half-life at 1 mg/mL: 6.15 h
[5]; [14]
  half-life at 1 mg/mL: > 168 h
[5]; [15]
  half-life at 1 mg/mL: > 168 h

## C/C(=N\OC(=O)N(C)C[C@@H]1CCN1)[C@H]1CC[C@H]2[C@@H]3CCC4=CC(=O)CC[C@]4(C)[C@H]3CC[C@]12C [20o]
[1]; [6]
  solubility: > 10000 µg/mL
[2]
  Plasma, 37 °C %rem. at 2h (Table S23): 1%
[2]; [7]
  half-life at 3 µM: 0.29 h
[2]; [16]
  half-life at 3 µM: 0.29 h
[2]; [8]
  half-life at 3 µM: 0.29 h
[3]; PBS
  PBS, 37 °C %rem. at 2h (Table S23): 14%
[3]; [9]
  half-life at 3 µM: 0.9 h
[3]; [17]
  half-life at 3 µM: 0.9 h
[3]; [10]
  half-life at 3 µM: 0.9 h
[4]; [12]
  half-life at 1 mg/mL: 6.3 ± 0.09 h
[4]; [18]
  half-life at 1 mg/mL: 6.3 h
[4]; [13]
  half-life at 1 mg/mL: 6.3 h
[5]; [14]
  half-life at 1 mg/mL: > 168 h
[5]; [19]
  half-life at 1 mg/mL: > 168 h
[5]; [15]
  half-life at 1 mg/mL: > 168 h

## C/C(=N\OC(=O)N(C)C[C@@H]1CC2(CC2)CN1)[C@H]1CC[C@H]2[C@@H]3CCC4=CC(=O)CC[C@]4(C)[C@H]3CC[C@]12C [20q]
[1]; [6]
  solubility: > 10000 µg/mL
[2]
  Plasma, 37 °C %rem. at 2h (Table S23): 15%
[2]; [7]
  half-life at 3 µM: 0.65 h
[2]; [16]
  half-life at 3 µM: 0.64 h
[2]; [8]
  half-life at 3 µM: 0.65 h
[3]; PBS
  PBS, 37 °C %rem. at 2h (Table S23): 5%
[3]; [9]
  half-life at 3 µM: 0.7 h
[3]; [17]
  half-life at 3 µM: 0.7 h
[3]; [10]
  half-life at 3 µM: 0.7 h
[4]; [12]
  half-life at 1 mg/mL: 4.35 h
[4]; [18]
  half-life at 1 mg/mL: 4.35 h
[4]; [13]
  half-life at 1 mg/mL: 4.35 h
[5]; [14]
  half-life at 1 mg/mL: > 168 h
[5]; [19]
  half-life at 1 mg/mL: > 168 h
[5]; [15]
  half-life at 1 mg/mL: > 168 h

## C/C(=N\OC(=O)N(C)C[C@@H]1C[C@H](N(C)C)CN1)[C@H]1CC[C@H]2[C@@H]3CCC4=CC(=O)CC[C@]4(C)[C@H]3CC[C@]12C [20u]
[1]; [6]
  solubility: > 10000 µg/mL
[2]
  Plasma, 37 °C %rem. at 2h (Table S23): 17%
[2]; [7]
  half-life at 3 µM: 0.74 h
[2]; [16]
  half-life at 3 µM: 0.73 h
[2]; [8]
  half-life at 3 µM: 0.74 h
[3]; [9]
  half-life at 3 µM: 1.08 h
[3]; [17]
  half-life at 3 µM: 1.08 h
[3]; [10]
  half-life at 3 µM: 1.08 h
[4]; [12]
  half-life at 1 mg/mL: 7.53 ± 1.3 h
[4]; [18]
  half-life at 1 mg/mL: 7.53 h
[4]; [13]
  half-life at 1 mg/mL: 7.53 h
[5]; [14]
  half-life at 1 mg/mL: 72 h
[5]; [19]
  half-life at 1 mg/mL: 72 h
[5]; [15]
  half-life at 1 mg/mL: 72 h

## C/C(=N\OC(=O)N(CCN(C)C)CCN(C)C)[C@H]1CC[C@H]2[C@@H]3CCC4=CC(=O)CC[C@]4(C)[C@H]3CC[C@]12C [20y]
[1]; pH 5
  solubility: < 10000 µg/mL
[2]
  Plasma, 37 °C %rem. at 2h (Table S23): 84%
[2]; [7]
  half-life at 3 µM: 8.88 h
[2]; [8]
  half-life at 3 µM: 8.88 h
[3]; PBS
  Prodrug stability / self-immolation in buffer, in words: hydrolytic instability
  PBS, 37 °C %rem. at 2h (Table S23): 35%
[3]; [9]
  half-life at 3 µM: 1.87 h
[3]; [10]
  half-life at 3 µM: 1.87 h
[4]; [12]
  half-life at 1 mg/mL: 0.017 ± 0.002 h
[4]; [13]
  half-life at 1 mg/mL: 0.02 h
[5]; pH 5, acetate buffer pH 5.0, RT, HPLC 254 nm, read-out: t1/2 in acetate buffer at RT
  half-life at 1 mg/mL: 0.1322 ± 0.00117 h

## C/C(=N\OC(=O)N(CCO)CCNCCO)[C@H]1CC[C@H]2[C@@H]3CCC4=CC(=O)CC[C@]4(C)[C@H]3CC[C@]12C.Cl [20z]
[1]; [6]
  solubility: > 10000 µg/mL
[2]
  Plasma, 37 °C %rem. at 2h (Table S23): 71%
[2]; [7]
  half-life at 3 µM: 2.3 h
[2]; [8]
  half-life at 3 µM: 2.3 h
[3]; PBS
  PBS, 37 °C %rem. at 2h (Table S23): 78%
[3]; [9]
  half-life at 3 µM: 6.27 h
[3]; [10]
  half-life at 3 µM: 6.27 h
[4]; [12]
  half-life at 1 mg/mL: 28.8 ± 3.16 h
[4]; [13]
  half-life at 1 mg/mL: 28.8 h
[5]; [14]
  half-life at 1 mg/mL: > 168 h
[5]; [15]
  half-life at 1 mg/mL: > 168 h
